We go through eight compounds from ChEMBL document CHEMBL1121589, “Synthesis and biological activities of 5-(hydroxymethyl, azidomethyl, or aminomethyl)-2'-deoxyuridine and related 5'-substituted analogues” (J Med Chem, 1980).

Molecules are shown by their SMILES.

Holding throughout (assay type): functional
Experiment [1] concerns Human alphaherpesvirus 1. The experiment is described as follows: Antiviral activity against herpes simplex virus type I was measured at 400 uM concentration.
Experiment [2] concerns L1210. Nature of the experiment: Compound tested for inhibition of the replication of L1210 cells in cell culture at 7 uM. The following applies: Mus musculus.
Experiment [3] deals with L1210. Nature of the experiment: Compound tested for inhibition of the replication of L1210 cells in cell culture. The settings on record: Mus musculus, read-out: ED50 (the source's name).
The test system of experiment [4] is Human alphaherpesvirus 1. The experiment is described as follows: Kinetic inhibition constant against herpes simplex virus type I pyrimidine deoxyribonucleoside kinase was measured.
The nature of experiment [5]: Inhibitory activity against growth of sarcoma 180 cells at 1 uM. The settings on record: Mus musculus, read-out: ED50 (the source's name).
The test system of experiment [6] is Human alphaherpesvirus 1. Nature of the experiment: Antiviral activity against herpes simplex virus type I was measured at 200 uM concentration.
In experiment [7] the test system is L1210. Nature of the experiment: Compound tested for inhibition of the replication of L1210 cells in cell culture at 200 uM. The settings on record: Mus musculus.
The test system of experiment [8] is Human alphaherpesvirus 1. Nature of the experiment: Antiviral activity against herpes simplex virus type I was measured at 5 uM concentration.

Take `NCc1cn([C@H]2C[C@H](O)[C@@H](CO)O2)c(=O)[nH]c1=O`: in the experiment on Human alphaherpesvirus 1 [1], the Control worked out at 100%. The compound further yielded an inhibition at 7 µM in the experiment with L1210 [2] of 93%. Besides, the EC50 was 2 µM in the experiment on L1210 [3] and 160 nM in experiment [5]. The Ki with Human alphaherpesvirus 1 [4] worked out at 36 µM.
Regarding `[N-]=[N+]=NCc1cn([C@H]2C[C@H](O)[C@@H](CN=[N+]=[N-])O2)c(=O)[nH]c1=O`, the Control with Human alphaherpesvirus 1 [1] was determined as 100%. The Ki in the experiment on Human alphaherpesvirus 1 [4] came out at 62 µM.
For `NC[C@H]1O[C@@H](n2cc(CO)c(=O)[nH]c2=O)C[C@@H]1O` the same measures were 100% and 530 µM.
Consider `[N-]=[N+]=NCc1cn([C@H]2C[C@H](O)[C@@H](CO)O2)c(=O)[nH]c1=O`, for which the Control in the experiment on Human alphaherpesvirus 1 [6] turned out to be 0.5%. In the experiment on L1210 [7], this compound registered an inhibition at 200 µM of 96%. Also, the EC50 in the experiment on L1210 [3] is 90 µM. In addition, the Ki in the experiment on Human alphaherpesvirus 1 [4] was found to be 0.8 µM.
In the experiment on Human alphaherpesvirus 1 [1], `NCc1cn([C@H]2C[C@H](O)[C@@H](CN)O2)c(=O)[nH]c1=O` showed a Control of 100%. Moreover, the Ki with Human alphaherpesvirus 1 [4] is over 500 µM.
`O=c1[nH]c(=O)n([C@H]2C[C@H](O)[C@@H](CO)O2)cc1I` [IDOXURIDINE] gave a Control with Human alphaherpesvirus 1 [8] of 2%. The compound also showed a Ki in the experiment on Human alphaherpesvirus 1 [4] of 0.4 µM.
On to `[N-]=[N+]=NC[C@H]1O[C@@H](n2cc(CO)c(=O)[nH]c2=O)C[C@@H]1O`, for which, in the experiment with Human alphaherpesvirus 1 [6], the Control is recorded as 100%. In the experiment on Human alphaherpesvirus 1 [4], this compound returned a Ki of 31 µM.
Consider `O=c1[nH]c(=O)n([C@H]2C[C@H](O)[C@@H](CO)O2)cc1CO`, for which the Control in the experiment on Human alphaherpesvirus 1 [6] is 0.05%. In the experiment with Human alphaherpesvirus 1 [4], this compound displayed a Ki of 3.5 µM.

In general, inhibition refers to the percentage by which the read-out fell short of the control. High values mean strong suppression, low ones little suppression. By Ki is commonly meant a measure of affinity in units of concentration, obtained from inhibition or displacement. Read a high Ki as a looser hold on the target.
